Data published in patent US9253980B2 (priority 2011, dated 2016).

Tested on: Puccinia recondita
Experiment: Control of brown rust on wheat caused by Puccinia recondita (greenhouse, comparative)
Assay type: in vivo
Settings: 500 ppm spray to run-off one day before inoculation; % diseased leaf area, visually assessed; untreated control 90
Description: The spray solutions were prepared in several steps:
The stock solution were prepared: a mixture of acetone and/or dimethylsulfoxide and the wetting agent/emulsifier Wettol, which is based on ethoxylated alkylphenoles, in a relation (volume) solvent-emulsifier of 99 to 1 was added to 25 mg of the compound to give a total of 5 ml. Water was then added to total volume of 100 ml.
This stock solution was diluted with the described solvent-emulsifier-water mixture to the given concentration.
The first two developed leaves of pot-grown wheat seedling were sprayed to run-off with an aqueous suspension, containing 500 ppm of active ingredient as described below. The next day the plants were inoculated with spores of Puccinia recondita. To ensure the success the artificial inoculation, the plants were transferred to a humid chamber without light and a relative humidity of 95 to 99% and 20 to 24° C. for 24 h. Then the trial plants were cultivated for 6 days in a greenhouse chamber at 20-24° C. and a relative humidity between 65 and 70%. The extent of fungal attack on the leaves was visually assessed as % diseased leaf area.

SMILES	Disease level (%)
Cn1c(=O)c2sc3c(=O)n(C)c(=O)c3sc2c1=O	80%
COn1c(=O)c2sc3c(=O)n(OC)c(=O)c3sc2c1=O [I-2, 2.6-Dimethoxy-1H.5H-[1.4]dithiino[2,3-c:5.6-c′]dipyrrol-1.3.5.7(2H.6H)tetrone]	45%
